Where two headings read alike, the source gives them in different places. Values belong to the compound of their own block, whether it stands above or below them.
What was measured:
[1] = Plasma concentrations and estimation of urinary D-mannitol concentration after administration to cynomolgus monkeys; assay type: in vivo; conditions: 500 mg/kg; for concentration at 4 h / concentration at 1 h / concentration at 8 h / AUC(0-t) / clearance: cynomolgus monkey, plasma; for concentration at 4 h / concentration at 1 h / concentration at 8 h / Plasma concentration 0 hr (a) / Plasma concentration 0.25 hr (b) / Plasma concentration 24 hr (f): average of 3 animals; for concentration at 1 h: read-out: Plasma concentration 1 hr (c); for concentration at 8 h: read-out: Plasma concentration 8 hr (e); for AUC(0-t): read-out: AUC0-24 hr (g); for clearance: read-out: CLtot (h) (converted); for Estimated urinary concentration at 0.25 hr (k): amount of urine up to 0.25 hr assumed 3.91 mL; for Average plasma concentration from 0 hr to 0.25 hr (i): average of values a and b; for Amount excreted up to 0.25 hr (j): calculated by using CLtot
Procedure: (§1) For setting the test conditions such as the concentrations of sugar and antisense oligomers assumed to be in urine, D-mannitol, which is […] and corresponds to a reduced form of D-mannose, and antisense oligomers were administered to cynomolgus monkeys, and the urinary concentration shortly after administration were estimated from the changes in plasma concentrations and the total body clearance.
20% D-mannitol was diluted to 50 mg/mL with physiological saline, the diluted solution thus obtained was administered at 10 mL/kg to 3 male and 3 female cynomolgus monkeys aged 1 to 2 year-old, and the plasma concentrations were then measured at 0 hours (immediately after administration), 0.25 hours, 1 hour, 4 hours, 8 hours, and 24 hours after administration (each of the values a, b, c, d, e, and f in Table 2 was an average value of 3 animals). From the values, the area under the plasma concentration-time curve (AUC0-24 hr) up to 24 hours after administration and the total body clearance (CLtot) were calculated (the values g and h in Table 2). Further, the plasma concentrations at 0 hours and 0.25 hours after administration (the values a and b in Table 2) were averaged to obtain the average plasma concentration from 0 hours to 0.25 hours (the value i in Table 2), and the amount of D-mannitol excreted per body weight up to 0.25 hours (the value j in Table 2) was calculated by using CLtot (the value h in Table 2). The amount of urine up to 0.25 hours after administration was assumed to be 3.91 mL, based on the fact that the daily amount of urine of cynomolgus monkeys (body weight: 5 kg) was 375 mL (B Clark, D A Smith Pharmacokinetics and toxicity testing. Crit Rev Toxicol. 1984; 12 (4): 343-85.), and the urinary mannitol concentration at 0.25 hours after administration was then estimated (the value k in Table 2).
The estimated urinary concentration obtained as above was averaged, and the urinary concentration shortly after administration in a case of administering 500 mg/kg of D-mannitol was estimated to be 127.5 mg/mL. Since D-mannitol is rarely distributed in the body and rapidly excreted in urine without undergoing metabolism, it can be assumed that there is a linear relationship between the amount administered and the urinary concentration. Accordingly, by using the following formulas, the urinary concentration was converted into the amount of D-mannitol administered, and the amount administered was then converted into concentrations in the formulations at the time of administration (at the time of use) according to the body weight and the amount of dosing solution.

[2] = Plasma concentrations and estimation of urinary PMO No. 12 concentration after administration to cynomolgus monkeys; assay type: in vivo; conditions: male cynomolgus monkeys; for Plasma concentration 0 hr (a) / Plasma concentration 0.25 hr (b) / Plasma concentration 0.5 hr (c) / Plasma concentration 1 hr (d) / Plasma concentration 2 hr (e) / Plasma concentration 6 hr (f) / Plasma concentration 24 hr (g): average of 3 animals; for Estimated urinary concentration at 0.25 hr (l): amount of urine up to 0.25 hr assumed 3.91 mL; for Average plasma concentration from 0 hr to 0.25 hr (j): average of values a and b; for Amount excreted up to 0.25 hr (k): calculated by using CLtot
Procedure: as §1
From the values, the area under the plasma concentration-time curve (AUC0-24 hr) up to 24 hours after administration and the total body clearance (CLtot) were calculated (the values h and i in Table 3). Further, the plasma concentrations at 0 hours and 0.25 hours after administration (the values a and b in Table 3) were averaged to obtain the average plasma concentration from 0 hours to 0.25 hours (the value j in Table 3), and the amount of antisense oligomer excreted per body weight up to 0.25 hours (the value k in Table 3) was calculated by using CLtot (the value i in Table 3). The amount of urine up to 0.25 hours after administration was assumed to be 3.91 mL, based on the fact that the daily amount of urine of cynomolgus monkeys (body weight: 5 kg) was 375 mL, and the urinary antisense oligomer concentration at 0.25 hours after administration was then estimated (the value 1 in Table 3).

- concentration at 4 h ([1]; female cynomolgus monkeys): 90.3 µg/mL
- concentration at 1 h ([1]; female cynomolgus monkeys): 720 µg/mL
- concentration at 8 h ([1]; female cynomolgus monkeys): 4.87 µg/mL
- AUC(0-t) ([1]; female cynomolgus monkeys): 2830 µg·h/mL
- clearance ([1]; female cynomolgus monkeys): 2.95 mL/min/kg
- concentration at 4 h ([1]; male cynomolgus monkeys): 89.2 µg/mL
- concentration at 1 h ([1]; male cynomolgus monkeys): 651 µg/mL
- concentration at 8 h ([1]; male cynomolgus monkeys): 4.67 µg/mL
- AUC(0-t) ([1]; male cynomolgus monkeys): 2680 µg·h/mL
- clearance ([1]; male cynomolgus monkeys): 3.12 mL/min/kg
- urinary concentration shortly after administration (estimated, averaged) ([1]; cynomolgus monkeys, average of male and female estimates): 127.5 mg/mL
- Plasma concentration 0 hr (a) ([1]; female cynomolgus monkeys): 2950 µg/mL
- Plasma concentration 0.25 hr (b) ([1]; female cynomolgus monkeys): 1490 µg/mL
- Plasma concentration 24 hr (f) ([1]; female cynomolgus monkeys): Below detection limit
- Estimated urinary concentration at 0.25 hr (k) ([1]; female cynomolgus monkeys): 126 mg/mL
- Average plasma concentration from 0 hr to 0.25 hr (i) ([1]; female cynomolgus monkeys): 2220 µg/mL
- Amount excreted up to 0.25 hr (j) ([1]; female cynomolgus monkeys): 98235 µg/kg
- Plasma concentration 0 hr (a) ([1]; male cynomolgus monkeys): 2810 µg/mL
- Plasma concentration 0.25 hr (b) ([1]; male cynomolgus monkeys): 1510 µg/mL
- Plasma concentration 24 hr (f) ([1]; male cynomolgus monkeys): Below detection limit
- Estimated urinary concentration at 0.25 hr (k) ([1]; male cynomolgus monkeys): 129 mg/mL
- Average plasma concentration from 0 hr to 0.25 hr (i) ([1]; male cynomolgus monkeys): 2160 µg/mL
- Amount excreted up to 0.25 hr (j) ([1]; male cynomolgus monkeys): 100980 µg/kg
Compound: OC[C@@H](O)[C@@H](O)[C@H](O)[C@H](O)CO [D-Mannitol, D-mannitol]

Compound: PMO No. 12: phosphorodiamidate morpholino antisense oligomer, sequence CCTCCGGTTCTGAAGGTGTTC, 5′-end Group(2) (all phosphorodiamidate morpholino (PMO); further chemistry not fully specified)
- AUC0-24 hr (h) ([2]; 10 mg/kg): 50.25 µg·h/mL
- CLtot (i) ([2]; 10 mg/kg): 3.317 mL/min/kg
- Plasma concentration 0 hr (a) ([2]; 10 mg/kg): 137.6 µg/mL
- Plasma concentration 0.25 hr (b) ([2]; 10 mg/kg): 30.95 µg/mL
- Plasma concentration 0.5 hr (c) ([2]; 10 mg/kg): 19.06 µg/mL
- Plasma concentration 1 hr (d) ([2]; 10 mg/kg): 9.79 µg/mL
- Plasma concentration 2 hr (e) ([2]; 10 mg/kg): 4.328 µg/mL
- Plasma concentration 6 hr (f) ([2]; 10 mg/kg): Below detection limit
- Plasma concentration 24 hr (g) ([2]; 10 mg/kg): Below detection limit
- Estimated urinary concentration at 0.25 hr (l) ([2]; 10 mg/kg): 5.362 mg/mL
- Average plasma concentration from 0 hr to 0.25 hr (j) ([2]; 10 mg/kg): 84.28 µg/mL
- Amount excreted up to 0.25 hr (k) ([2]; 10 mg/kg): 4193 µg/kg
- AUC0-24 hr (h) ([2]; 60 mg/kg): 269.3 µg·h/mL
- CLtot (i) ([2]; 60 mg/kg): 3.713 mL/min/kg
- Plasma concentration 0 hr (a) ([2]; 60 mg/kg): 805.9 µg/mL
- Plasma concentration 0.25 hr (b) ([2]; 60 mg/kg): 154.7 µg/mL
- Plasma concentration 0.5 hr (c) ([2]; 60 mg/kg): 100.9 µg/mL
- Plasma concentration 1 hr (d) ([2]; 60 mg/kg): 45.93 µg/mL
- Plasma concentration 2 hr (e) ([2]; 60 mg/kg): 18.46 µg/mL
- Plasma concentration 6 hr (f) ([2]; 60 mg/kg): 1.045 µg/mL
- Plasma concentration 24 hr (g) ([2]; 60 mg/kg): Below detection limit
- Estimated urinary concentration at 0.25 hr (l) ([2]; 60 mg/kg): 34.21 mg/mL
- Average plasma concentration from 0 hr to 0.25 hr (j) ([2]; 60 mg/kg): 480.3 µg/mL
- Amount excreted up to 0.25 hr (k) ([2]; 60 mg/kg): 26753 µg/kg
